Experimental data as given in patent US12398179B2, “Nanomolar peptides and derivatives to differentially modulate ephrin receptors” (Sanford Burnham Prebys Medical Discovery Institute, priority 2019, dated 2025).
≈ marks a conversion by molar mass, not a printed value. Read-outs that look alike come from different tables or passages of the source. Non-standard residues stand in square brackets, D forms with d. Residues, ends and D or L forms follow the SMILES beside them. *: point of attachment. Biotin = O=C1N[C@H]2[C@H](CS[C@H]2CCCCC(=O)*)N1; βAla = NCCC(=O)O

Assays:
EphA2 LBD = target: T1, EphA2 LBD (Homo sapiens, UniProt P29317); experiment: Isothermal titration calorimetry (ITC) of peptide binding
T1 construct: EphA2 LBD (residues 28-200); made in house; host or cells: E. coli Origami 2 (DE3)
T1 sequence (P29317 28-200): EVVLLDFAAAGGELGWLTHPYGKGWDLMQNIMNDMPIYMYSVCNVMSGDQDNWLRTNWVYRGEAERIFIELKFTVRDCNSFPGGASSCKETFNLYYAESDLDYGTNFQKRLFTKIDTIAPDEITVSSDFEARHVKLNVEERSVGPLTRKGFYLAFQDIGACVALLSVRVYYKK
Description: For ITC, all peptides were dissolved in DMSO and both the EphA2 LBD and the peptides were diluted to obtain a final buffer containing 9.5 mM HEPES, pH 7.9, 95 mM NaCl, and 5% DMSO. […] Two-microliter aliquots of a peptide solution were injected into the cell containing 205 μL EphA2 LBD. 200-400 μM peptides were titrated into 20-40 μM EphA2 LBD. Experimental data were analyzed using the Origin software package (Microcal). The integrated values for the reaction heats were normalized to the amount of injected peptide after blank subtraction.

[1] = Peptide solubility in PBS/H2O
EphA2 [2] = target: T2, EphA2 (Homo sapiens, UniProt P29317); experiment: ELISA: inhibition of ephrin-A5 AP binding to immobilized EphA2 Fc; design: the immobilized EphA2 extracellular domain fused to the Fc portion of an antibody (EphA2 Fc); conditions: average ± SE
Description: (FIG. 2A) Representative ELISAs comparing the ability of the peptides to inhibit binding of ephrin-A5 fused to alkaline phosphatase (ephrin-A5 AP) to the immobilized EphA2 extracellular domain fused to the Fc portion of an antibody (EphA2 Fc). The graphs show averages±SE from triplicate measurements from a representative experiment. IC50 values calculated from the fitted curves in each experiment are shown. All concentrations are nM and the 100 nM peptide concentration is outlined in red. (FIG. 2B) Ephrin-A5 AP binding to the indicated EphA receptors and ephrin-B2 AP binding to the indicated EphB receptors in the presence of the indicated peptide, normalized to ephrin binding without peptide. The bars show averages±SE from triplicate measurements.
Target sequence in this assay (P29317 24-537 limits assumed, species assumed): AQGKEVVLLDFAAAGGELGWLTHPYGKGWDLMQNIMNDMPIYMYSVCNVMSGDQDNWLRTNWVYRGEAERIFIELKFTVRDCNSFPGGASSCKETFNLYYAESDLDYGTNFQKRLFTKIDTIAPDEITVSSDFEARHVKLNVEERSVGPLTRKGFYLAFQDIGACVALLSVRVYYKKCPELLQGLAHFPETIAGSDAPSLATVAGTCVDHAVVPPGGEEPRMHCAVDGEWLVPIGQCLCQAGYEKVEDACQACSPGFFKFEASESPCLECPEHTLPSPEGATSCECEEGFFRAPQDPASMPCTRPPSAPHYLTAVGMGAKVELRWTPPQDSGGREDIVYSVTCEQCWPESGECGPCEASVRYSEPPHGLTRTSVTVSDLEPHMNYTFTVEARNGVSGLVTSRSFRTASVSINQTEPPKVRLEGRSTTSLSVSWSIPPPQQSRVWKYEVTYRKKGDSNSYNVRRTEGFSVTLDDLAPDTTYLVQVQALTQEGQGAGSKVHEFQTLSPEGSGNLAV

EphA2 [3] = target: T2, EphA2; experiment: EphA2 Y588 autophosphorylation in PC3 cells (immunoblot); format: cell-based; design: endogenous EphA2 expressed in PC3 prostate cancer cells; endogenous in cells; host or cells: PC3 prostate cancer cells; conditions: for EphA2 activation / Y588 phosphorylation (in words): 15 min
Description: PC3 cells were treated for 15 min with different concentrations of the indicated peptides. […] The graphs show quantification of pY588 and pAKT from multiple blots (averages±SE), normalized to total EphA2 levels. The number of experiments analyzed is: 5 in FIG. 4A, 3 in FIG. 4B, 7 in FIG. 4C, 7 in FIG. 4D, 5 in FIG. 4E, 3 in FIG. 4F, 3 in FIG. 4G and 2 in FIG. 4H.
PC3 cells were treated for 15 min with different concentrations of the indicated peptides. […] The graphs show quantification of pY588 or pAKT from multiple blots (averages±SE), normalized to total EphA2 levels. The number of experiments analyzed is: 3 in FIG. 10A, 6 in FIG. 10B, 2 in FIG. 10C, 5 in FIG. 10D, 4 in FIG. 10E and 3 in FIG. 10F.
Target sequence in this assay (P29317 24-976): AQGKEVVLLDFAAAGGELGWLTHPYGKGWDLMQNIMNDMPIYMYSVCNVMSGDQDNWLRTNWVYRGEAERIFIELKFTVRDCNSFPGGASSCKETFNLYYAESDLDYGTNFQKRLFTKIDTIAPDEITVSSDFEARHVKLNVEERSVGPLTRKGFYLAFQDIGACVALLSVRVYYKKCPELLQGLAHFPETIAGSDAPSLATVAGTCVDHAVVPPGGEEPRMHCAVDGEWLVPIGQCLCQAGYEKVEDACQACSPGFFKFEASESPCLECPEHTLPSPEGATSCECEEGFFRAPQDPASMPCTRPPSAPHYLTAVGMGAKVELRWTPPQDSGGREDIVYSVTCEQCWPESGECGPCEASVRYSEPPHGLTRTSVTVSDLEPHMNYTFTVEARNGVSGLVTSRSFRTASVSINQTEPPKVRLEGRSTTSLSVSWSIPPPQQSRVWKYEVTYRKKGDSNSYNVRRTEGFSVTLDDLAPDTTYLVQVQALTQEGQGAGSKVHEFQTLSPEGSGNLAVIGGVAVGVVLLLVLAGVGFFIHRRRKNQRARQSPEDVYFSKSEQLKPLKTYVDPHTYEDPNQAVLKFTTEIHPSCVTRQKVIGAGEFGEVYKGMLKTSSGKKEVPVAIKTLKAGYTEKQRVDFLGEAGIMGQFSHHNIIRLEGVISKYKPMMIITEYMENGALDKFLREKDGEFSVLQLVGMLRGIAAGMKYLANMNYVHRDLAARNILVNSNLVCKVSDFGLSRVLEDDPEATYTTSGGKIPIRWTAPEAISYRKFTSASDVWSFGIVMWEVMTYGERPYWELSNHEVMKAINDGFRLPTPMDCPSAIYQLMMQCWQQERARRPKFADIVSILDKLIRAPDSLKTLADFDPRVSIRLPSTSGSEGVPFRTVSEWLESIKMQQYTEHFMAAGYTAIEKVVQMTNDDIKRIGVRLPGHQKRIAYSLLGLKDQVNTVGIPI

[4] = PBS, Solubility in PBS (mg/ml), PBS (first figure of cell)
[5] = water, Solubility in H2O (mg/ml), H2O (second figure of cell)

solubility [1, 4] [µg/mL] | solubility [1, 5] [µg/mL] | IC50 (EphA2 [2]) [nM] | Compound | further results
 |  |  | O=C(O)CCCC[C@@H]1SC[C@@H]2NC(=O)N[C@@H]21 [biotin, reference compound] | binding to the EphA2 LBD by ITC (in words) (EphA2 LBD; 1 mM biotin): did not detect binding
5000 (≈ 3.48 mM) | 5000 (≈ 3.48 mM) | 390 ± 30 | CC(C)C[C@H](NC(=O)[C@H](Cc1c[nH]c2ccccc12)NC(=O)CCN)C(=O)N[C@@H](C)C(=O)N[C@@H](Cc1ccc(O)cc1)C(=O)N1CCC[C@H]1C(=O)N[C@@H](CC(=O)O)C(=O)N[C@@H](CO)C(=O)N[C@H](C(=O)N1CCC[C@H]1C(=O)N[C@@H](Cc1ccc(O)cc1)C(=O)N[C@@H](CCCNC(=N)N)C(=O)O)C(C)C [βA-WLA-YR] (HELM PEPTIDE1{[bAla].W.L.A.Y.P.D.S.V.P.Y.R}$$$$V2.0; N-terminus and C-terminus assumed) | 
10000 (≈ 6.01 mM) | 10000 (≈ 6.01 mM) | 55 ± 5 | CC(C)C[C@H](NC(=O)[C@H](Cc1c[nH]c2ccccc12)NC(=O)CCN)C(=O)N[C@@H](C)C(=O)N[C@@H](Cc1ccc(O)cc1)C(=O)N1CCC[C@H]1C(=O)N[C@@H](CC(=O)O)C(=O)N[C@@H](CO)C(=O)N[C@H](C(=O)N1CCC[C@H]1C(=O)N[C@@H](Cc1ccc(O)cc1)C(=O)N[C@@H](CCCNC(=N)N)C(=O)N1CCC[C@H]1C(=O)N[C@@H](CCCCN)C(=O)O)C(C)C [βA-WLA-YRPK] | Kd (EphA2 LBD; EphA2 LBD, 23° C., average ± SE (Table 1), read-out: KD (nM) by ITC): 190 nM; Kd (EphA2 LBD; read-out: binding affinity for the EphA2 LBD measured by ITC): ~200 nM; EphA2 activation / Y588 phosphorylation (in words) (EphA2 [3]): substantial ability to activate EphA2; maximal Y588 phosphorylation lower than biotinylated peptide (EphA2 [3]; saturating peptide concentrations): about 40%
10000 (≈ 8.01 mM) | 10000 (≈ 8.01 mM) | 840 ± 80 | CSCC[C@H](NC(=O)[C@@H]1CCCN1C(=O)[C@@H](NC(=O)[C@H](CO)NC(=O)[C@H](CC(=O)O)NC(=O)[C@@H]1CCCN1C(=O)[C@H](Cc1ccc(O)cc1)NC(=O)[C@H](C)NC(=O)[C@H](CC(C)C)NC(=O)[C@H](Cc1c[nH]c2ccccc12)NC(=O)CCN)C(C)C)C(N)=O [βA-WLAam] (HELM PEPTIDE1{[bAla].W.L.A.Y.P.D.S.V.P.M.[am]}$$$$V2.0; N-terminus assumed) | 
 |  |  | CC(C)C[C@H](NC(=O)[C@H](Cc1c[nH]c2ccccc12)NC(=O)[C@@H](N)CO)C(=O)N[C@@H](C)C(=O)N[C@@H](Cc1ccc(O)cc1)C(=O)N1CCC[C@H]1C(=O)NCC(=O)N[C@@H](C)C(=O)N[C@H](C(=O)N[C@@H](CO)C(=O)N[C@@H](Cc1ccc(O)cc1)C(=O)N[C@@H](CCCN=C(N)N)C(=O)O)C(C)C [SWL] | solubility (physchem; Solubility in H2O (mg/ml)): 10000 µg/mL (≈ 7.3 mM); solubility (physchem; Solubility in PBS (mg/ml)): 5000 µg/mL (≈ 3.65 mM)
5000 (≈ 3.34 mM) | 2000 (≈ 1.34 mM) | 380 ± 140 | CC(C)C[C@H](NC(=O)[C@H](Cc1c[nH]c2ccccc12)NC(=O)CCN)C(=O)N[C@@H](C)C(=O)N[C@@H](Cc1ccc(O)cc1)C(=O)N1CCC[C@H]1C(=O)N[C@@H](CC(=O)O)C(=O)N[C@@H](CO)C(=O)N[C@H](C(=O)N1CCC[C@H]1C(=O)N[C@@H](Cc1ccc(O)cc1)C(=O)N[C@@H](CO)C(=O)N[C@@H](CCCCN)C(=O)O)C(C)C [βA-WLA-YSK] (HELM PEPTIDE1{[bAla].W.L.A.Y.P.D.S.V.P.Y.S.K}$$$$V2.0; N-terminus and C-terminus assumed) | 
2000 (≈ 1.06 mM) | 5000 (≈ 2.65 mM) | 18 ± 1 | CC(C)C[C@H](NC(=O)[C@H](Cc1c[nH]c2ccccc12)NC(=O)CCN)C(=O)N[C@@H](C)C(=O)N[C@@H](Cc1ccc(O)cc1)C(=O)N1CCC[C@H]1C(=O)N[C@@H](CC(=O)O)C(=O)N[C@@H](CO)C(=O)N[C@H](C(=O)N1CCC[C@H]1C(=O)N[C@@H](Cc1ccc(O)cc1)C(=O)N[C@@H](CCCNC(=N)N)C(=O)N1CCC[C@H]1C(=O)N[C@@H](CCCCNC(=O)CCCC[C@@H]1SC[C@@H]2NC(=O)N[C@@H]21)C(N)=O)C(C)C [βA-WLA-YRPKam-bio] | EphA2 activation / Y588 phosphorylation (in words) (EphA2 [3]): induce high levels of EphA2 phosphorylation
 | 5000 (≈ 3.9 mM) | 410 ± 50 | CC(C)C[C@H](NC(=O)[C@H](Cc1c[nH]c2ccccc12)NC(=O)CCN)C(=O)N[C@@H](C)C(=O)N[C@@H](Cc1ccc(O)cc1)C(=O)N1CCC[C@H]1C(=O)N[C@@H](CC(=O)O)C(=O)N[C@@H](CO)C(=O)N[C@H](C(=O)N1CCC[C@H]1C(=O)N[C@@H](Cc1ccc(O)cc1)C(N)=O)C(C)C [βA-WLA-Yam] (HELM PEPTIDE1{[bAla].W.L.A.Y.P.D.S.V.P.Y.[am]}$$$$V2.0; N-terminus assumed) | 
5000 (≈ 2.93 mM) | 5000 (≈ 2.93 mM) | 82 ± 10 | CC(=O)NCCCC[C@H](NC(=O)[C@@H]1CCCN1C(=O)[C@H](CCCNC(=N)N)NC(=O)[C@H](Cc1ccc(O)cc1)NC(=O)[C@@H]1CCCN1C(=O)[C@@H](NC(=O)[C@H](CO)NC(=O)[C@H](CC(=O)O)NC(=O)[C@@H]1CCCN1C(=O)[C@H](Cc1ccc(O)cc1)NC(=O)[C@H](C)NC(=O)[C@H](CC(C)C)NC(=O)[C@H](Cc1c[nH]c2ccccc12)NC(=O)CCN)C(C)C)C(=O)O [βA-WLA-YRP-ack] | EphA2 activation / Y588 phosphorylation (in words) (EphA2 [3]): only slightly increased agonistic ability
5000 (≈ 2.72 mM) | 5000 (≈ 2.72 mM) | 330 ± 40 | CC(C)C[C@H](NC(=O)[C@H](Cc1c[nH]c2ccccc12)NC(=O)CCN)C(=O)N[C@@H](C)C(=O)N[C@@H](Cc1ccc(O)cc1)C(=O)N1CCC[C@H]1C(=O)N[C@@H](CC(=O)O)C(=O)N[C@@H](CO)C(=O)N[C@H](C(=O)N1CCC[C@H]1C(=O)N[C@@H](Cc1ccc(O)cc1)C(=O)NCC(=O)N[C@@H](CO)C(=O)NCC(=O)N[C@@H](CCCCNC(=O)CCCC[C@@H]1SC[C@@H]2NC(=O)N[C@@H]21)C(=O)O)C(C)C [βA-WLA-YGSGK-bio] (H-[βAla]WLAYPDSVPYGSGK(Biotin)-OH; N-terminus and C-terminus assumed) | 
10000 (≈ 5.67 mM) | 5000 (≈ 2.83 mM) | 4500 | CSCC[C@H](NC(=O)[C@H](CCSC)NC(=O)[C@@H]1CCCN1C(=O)[C@@H](NC(=O)[C@H](CO)NC(=O)[C@H](CC(=O)O)NC(=O)[C@@H]1CCCN1C(=O)[C@H](Cc1ccc(O)cc1)NC(=O)[C@H](C)NC(=O)[C@H](CO)NC(=O)[C@@H](N)Cc1ccc(O)cc1)C(C)C)C(=O)N[C@@H](CO)C(=O)NCC(=O)N[C@@H](CO)C(=O)NCC(=O)N[C@@H](CO)C(=O)N[C@@H](CCCCN)C(=O)O [YSA-GSGSK] | 
 |  | 62 ± 3 | CC(C)C[C@H](NC(=O)[C@H](Cc1c[nH]c2ccccc12)NC(=O)CCN)C(=O)N[C@@H](C)C(=O)N[C@@H](Cc1ccc(O)cc1)C(=O)N1CCC[C@H]1C(=O)N[C@@H](CC(=O)O)C(=O)N[C@@H](CO)C(=O)N[C@H](C(=O)N1CCC[C@H]1C(=O)N[C@@H](Cc1ccc(O)cc1)C(=O)N[C@@H](CO)C(=O)N1CCC[C@H]1C(=O)N[C@@H](CCCCNC(=O)CCCC[C@@H]1SC[C@@H]2NC(=O)N[C@@H]21)C(=O)O)C(C)C [βA-WLA-YSPK-bio] (H-[βAla]WLAYPDSVPYSPK(Biotin)-OH; N-terminus and C-terminus assumed) | 
